Patent publication US20240353338A1 (priority 2023, published 2024)

Assays:
[1] = target: T1, transthyretin (TTR) (Homo sapiens, UniProt P02766); type: binding
T1 construct: purchased Sigma Aldrich P1742

[2] = target: SARS-CoV-2 M^pro (Severe acute respiratory syndrome coronavirus 2, UniProt P0DTD1); experiment: TRIP screening of M^pro inhibitor binding and binding strength/affinity; conditions: 1 μM vs 5 μM M^pro mixes
[3] = target: streptavidin (Streptomyces avidinii, UniProt P22629); type: binding
streptavidin, sequence (P22629 37-163): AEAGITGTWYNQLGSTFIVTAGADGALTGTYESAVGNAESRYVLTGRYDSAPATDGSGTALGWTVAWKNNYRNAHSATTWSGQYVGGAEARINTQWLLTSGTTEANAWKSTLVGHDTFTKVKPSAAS

## O=[N+]([O-])c1ccc(O)c([N+](=O)[O-])c1 [DNP, 2,4 dinitrophenol]
[1]
  binding between DNP and TTR over time (PC2 of 1230-1350 cm^-1 region): enhanced over time

## Nc1nnc(Sc2ncc([N+](=O)[O-])s2)s1 [Halicin]
[2]
  affinity for monomer M^pro versus dimer / dimer-monomer M^pro mix: higher affinity for binding monomeric M^pro

## O=C(O)CCCC[C@@H]1SC[C@@H]2NC(=O)N[C@@H]21 [biotin]
[3]
  binding of biotin to streptavidin (Trp N-H band shift 877 to 870 cm^-1): strong hydrogen bonding occurred
